± gives the standard deviation of the averaged measurements.
Columns and labels:
[1] = compound: O=C(CCCCCCC(=O)Nc1ccccc1)NO [VORINOSTAT]; experiment: surviving fraction relative to DMSO-only wells; higher = less growth inhibition; details: exposure time: 5 days
In short: (§1)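 Inhibitors were tested at 0.5, 1, 5, 10, 50, 100, 500 and 1000 nM, applied continuously for five days beginning 24 hours after log-phase tumour cells were seeded at 250–500 per well in 384-well plates. CellTiter-Glo luminescence served as the viability measure, expressed as surviving fraction against the median of DMSO-only wells. Each line, screened three times, was kept only with replicate Pearson r >0.7 and median Z' >0.3.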

[2] = compound: Cc1cn(-c2cc(NC(=O)c3ccc(C)c(Nc4nccc(-c5cccnc5)n4)c3)cc(C(F)(F)F)c2)cn1 [NILOTINIB]; experiment: as above; details: exposure time: 5 days
In short: as §1

Test System	surviving fraction ([1]; 0.5 nM)	surviving fraction ([1]; 1 nM)	surviving fraction ([1]; 5 nM)	surviving fraction ([1]; 10 nM)	surviving fraction ([1]; 50 nM)	surviving fraction ([1]; 100 nM)	surviving fraction ([1]; 500 nM)	surviving fraction ([1]; 1000 nM)	surviving fraction ([2]; 0.5 nM)	surviving fraction ([2]; 1 nM)	surviving fraction ([2]; 5 nM)	surviving fraction ([2]; 10 nM)	surviving fraction ([2]; 50 nM)	surviving fraction ([2]; 100 nM)	surviving fraction ([2]; 500 nM)	surviving fraction ([2]; 1000 nM)
22RV1 PROSTATE	0.946 ± 0.09	1.02 ± 0.026	0.987 ± 0.054	0.994 ± 0.034	1.09 ± 0.046	1.03 ± 0.058	1.03 ± 0.051	0.726 ± 0.071	1.04 ± 0.05	1.07 ± 0.026	1.13 ± 0.079	1 ± 0.022	1.18 ± 0.13	1.09 ± 0.1	1.09 ± 0.043	1.09 ± 0.038
93VU HEADNECK	0.966 ± 0.02	1.06 ± 0.045	1.09 ± 0.087	1.08 ± 0.077	1.18 ± 0.093	1.1 ± 0.07	0.947 ± 0.035	0.731 ± 0.13	1.01 ± 0.03	0.97 ± 0.013	1.1 ± 0.1	1.14 ± 0.058	0.964 ± 0.049	1.03 ± 0.088	0.938 ± 0.076	0.872 ± 0.057
143B BONE	1.01 ± 0.0028	1.02 ± 0.011	1.053 ± 0.0014	1.01 ± 0.031	1.01 ± 0.03	1.02 ± 0.042	0.858 ± 0.11	0.835 ± 0.026	1.09 ± 0.076	1.07 ± 0.043	1.13 ± 0.1	1.11 ± 0.081	1.14 ± 0.12	1.14 ± 0.11	1.1 ± 0.11	1.11 ± 0.11
A549 LUNG	0.961 ± 0.026	0.9313 ± 0.009	0.923 ± 0.062	0.919 ± 0.042	1.04 ± 0.019	1.02 ± 0.061	1.18 ± 0.027	1.116 ± 0.006	1.06 ± 0.018	1.042 ± 0.01	1.11 ± 0.024	1.08 ± 0.037	1.1 ± 0.03	1.13 ± 0.045	1.08 ± 0.028	1.11 ± 0.043
ASKA SYNOVIAL	1.01 ± 0.033	1.03 ± 0.038	1.08 ± 0.045	0.951 ± 0.022	1.05 ± 0.015	1.01 ± 0.018	0.724 ± 0.024	0.525 ± 0.028	1.13 ± 0.033	1.02 ± 0.11	1.145 ± 0.0067	1.15 ± 0.036	1.08 ± 0.08	0.988 ± 0.088	0.936 ± 0.083	0.864 ± 0.066
BT20 BREAST	1.05 ± 0.17	1.09 ± 0.21	1.06 ± 0.17	1.05 ± 0.2	0.941 ± 0.21	0.943 ± 0.22	0.872 ± 0.19	0.491 ± 0.12	1.076 ± 0.0072	1.073 ± 0.0027	1.06 ± 0.05	1.16 ± 0.084	0.913 ± 0.14	1.01 ± 0.14	0.984 ± 0.12	0.878 ± 0.062
BT549 BREAST	1.12 ± 0.083	1.14 ± 0.11	1.15 ± 0.029	1.22 ± 0.051	1.12 ± 0.17	1.11 ± 0.068	0.773 ± 0.073	0.534 ± 0.034	1.1 ± 0.15	0.924 ± 0.095	1.1 ± 0.11	1.12 ± 0.11	1.05 ± 0.11	0.93 ± 0.14	1.01 ± 0.16	0.964 ± 0.15
C33A CERVIX	0.86 ± 0.078	0.952 ± 0.064	1.04 ± 0.031	1.05 ± 0.098	1.04 ± 0.15	1.05 ± 0.096	0.805 ± 0.014	0.615 ± 0.048	0.986 ± 0.1	1.08 ± 0.05	1.07 ± 0.031	1.01 ± 0.06	1.13 ± 0.067	1.27 ± 0.031	1.2 ± 0.086	1.14 ± 0.12
CADOES1 SOFT TISSUE	0.968 ± 0.063	0.916 ± 0.028	0.865 ± 0.096	0.824 ± 0.057	0.71 ± 0.23	0.397 ± 0.23	0.242 ± 0.057	0.0883 ± 0.016	1.02 ± 0.17	0.987 ± 0.05	1.01 ± 0.13	0.93 ± 0.071	0.932 ± 0.13	1.02 ± 0.045	0.963 ± 0.055	1.01 ± 0.057
CAL51 BREAST	0.956 ± 0.013	0.951 ± 0.056	1.02 ± 0.011	0.906 ± 0.021	1.02 ± 0.024	0.97 ± 0.078	0.65 ± 0.022	0.403 ± 0.01	0.977 ± 0.039	0.897 ± 0.066	1.01 ± 0.038	0.947 ± 0.073	1.03 ± 0.068	1.01 ± 0.06	0.952 ± 0.059	0.971 ± 0.032
CAL72 BONE	1.02 ± 0.056	1.09 ± 0.022	1.08 ± 0.02	1.07 ± 0.026	1.08 ± 0.029	1.07 ± 0.018	1.05 ± 0.022	1.06 ± 0.042	1.02 ± 0.031	1.06 ± 0.018	1.03 ± 0.038	1.06 ± 0.018	0.979 ± 0.033	1.02 ± 0.013	0.969 ± 0.062	0.977 ± 0.06
CAL120 BREAST	0.944 ± 0.017	0.896 ± 0.025	0.922 ± 0.013	0.883 ± 0.036	0.896 ± 0.025	0.78 ± 0.009	0.4962 ± 0.0023	0.248 ± 0.054	1.02 ± 0.041	1.02 ± 0.012	1.04 ± 0.052	1.03 ± 0.035	1.04 ± 0.027	1.01 ± 0.072	1.04 ± 0.081	1.02 ± 0.049
CASKI CERVIX	0.88 ± 0.024	0.942 ± 0.062	0.957 ± 0.013	0.903 ± 0.029	0.971 ± 0.046	0.955 ± 0.034	0.496 ± 0.02	0.448 ± 0.027	0.914 ± 0.026	0.993 ± 0.024	1.01 ± 0.063	0.96 ± 0.045	0.88 ± 0.063	0.785 ± 0.035	0.764 ± 0.13	0.77 ± 0.075
CHLA90 AUTONOMIC GANGLIA	0.971 ± 0.026	1.08 ± 0.046	0.976 ± 0.013	0.839 ± 0.047	1.02 ± 0.052	0.982 ± 0.063	0.977 ± 0.022	0.844 ± 0.053	0.993 ± 0.057	1.01 ± 0.082	0.957 ± 0.036	1.09 ± 0.076	1.1 ± 0.055	1.14 ± 0.12	1.11 ± 0.016	1.09 ± 0.077
CME SYNOVIAL	1.25 ± 0.12	1.15 ± 0.087	1.21 ± 0.061	0.882 ± 0.044	1.28 ± 0.1	1.08 ± 0.043	0.607 ± 0.089	0.383 ± 0.027	1.17 ± 0.064	1.15 ± 0.24	1.31 ± 0.15	1.21 ± 0.091	1.1 ± 0.12	1 ± 0.099	0.926 ± 0.11	0.483 ± 0.026
COLO320DM LARGE INTESTINE	1.1 ± 0.13	1.18 ± 0.15	1.12 ± 0.086	1.04 ± 0.049	1.22 ± 0.17	1.07 ± 0.14	0.577 ± 0.041	0.177 ± 0.0091	1.12 ± 0.059	1.04 ± 0.086	1.05 ± 0.13	1.08 ± 0.061	1.06 ± 0.095	0.961 ± 0.022	0.949 ± 0.024	0.764 ± 0.04
DU4475 BREAST	1.41 ± 0.74	1.08 ± 0.76	1.05 ± 0.56	1.25 ± 0.66	1.07 ± 0.57	0.952 ± 0.38	0.627 ± 0.22	0.431 ± 0.17	1.12 ± 0.018	1.06 ± 0.023	1.14 ± 0.13	1.06 ± 0.063	0.925 ± 0.088	1.06 ± 0.1	1.05 ± 0.066	0.9 ± 0.061
H23 LUNG	1.04 ± 0.048	0.983 ± 0.034	1.04 ± 0.036	1 ± 0.0087	1.18 ± 0.034	1.27 ± 0.037	1.44 ± 0.1	1.29 ± 0.062	1.04 ± 0.077	1.05 ± 0.052	1.14 ± 0.025	1.08 ± 0.033	1.24 ± 0.096	1.26 ± 0.088	1.18 ± 0.094	1.17 ± 0.1
HCC78 LUNG	1.01 ± 0.12	0.818 ± 0.22	0.852 ± 0.12	1 ± 0.091	0.947 ± 0.22	1.06 ± 0.019	0.326 ± 0.042	0.0463 ± 0.011	1.01 ± 0.092	0.993 ± 0.085	0.994 ± 0.055	1.1 ± 0.12	1.05 ± 0.09	1.1 ± 0.095	0.719 ± 0.085	0.525 ± 0.03
HCC202 BREAST	1.19 ± 0.26	1.12 ± 0.13	1.31 ± 0.11	1.12 ± 0.12	0.808 ± 0.14	0.777 ± 0.34	0.476 ± 0.12	0.295 ± 0.049	1.36 ± 0.11	1.08 ± 0.044	0.83 ± 0.15	0.987 ± 0.5	1.01 ± 0.22	1.09 ± 0.069	1.08 ± 0.052	0.912 ± 0.034

— the supplement of paper PMC6045584
